# Test results taken from article PMC12851022, “Targeting the Spliceosomal Protein USP39 Through Allosteric Ligands and PROTAC‐Induced Degradation” (Angewandte Chemie (International Ed. in English), 2025).
# Tests used:
# USP39_T2 [1] = target: T1, USP39_T2 (Homo sapiens, UniProt Q53GS9); assay: Competitive FP assay, tracer USP39_B1-FITC; assay type: binding; conditions: for Binding in competitive FP screening normalized to USP39_B1: 5 µM compound concentration; for IC50: tracer USP39_B1-FITC, protein USP39_T2
# T1 construct: USP39_T2 (ZNF domain only); made in house
# T1 sequence (Q53GS9 103-200 limits assumed): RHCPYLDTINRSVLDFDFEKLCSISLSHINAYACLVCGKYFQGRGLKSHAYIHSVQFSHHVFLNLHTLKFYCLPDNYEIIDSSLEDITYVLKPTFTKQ
# From the text: The compound label is taken from plot legend entries such as 'WT_USP39_B1'. / Panel e: the picture prints no compound label. WT, M1 and M2 are protein variants (targets), not substances.
# To systematically investigate structure–activity relationships, we synthesized a series of derivatives by modifying the phenyl ring, either by substituting the chlorine atom with other halogens or varying the substitution pattern (Figure SI2B).
# Figure 3 Design and in vitro characterization of USP39‐targeting PROTACs. a) Synthetic strategy for PROTAC synthesis. […] USP39_B1‐FITC served as the tracer, while USP39_T2 acted as the protein. The results were obtained from two independent experiments, each performed in triplicates and are presented as mean ± SD. e) Predicted results from AI‐Based DMPK analysis. MW: Molecular weight; HBA: H‐Bond acceptors; HBD: H‐Bond donors; Con_LogP: Consensus LogP; RotB: Rotatable Bonds; TPSA: Topological polar surface area; ESOL_LogS: predicted aqueous solubility (Log10 mol L^−1); GI: Gastrointestinal absorption; BBB: Blood–brain barrier. A comprehensive overview of all PROTACs and related data is available in Table SI5 of the Supporting Information.
# [2] = target: His-tagged USP39 and GST-tagged VHL (Homo sapiens, UniProt P40337+Q53GS9); assay: Alpha assay of ternary complex formation; assay type: binding
# His-tagged USP39 and GST-tagged VHL, sequence (Q53GS9 whole entry): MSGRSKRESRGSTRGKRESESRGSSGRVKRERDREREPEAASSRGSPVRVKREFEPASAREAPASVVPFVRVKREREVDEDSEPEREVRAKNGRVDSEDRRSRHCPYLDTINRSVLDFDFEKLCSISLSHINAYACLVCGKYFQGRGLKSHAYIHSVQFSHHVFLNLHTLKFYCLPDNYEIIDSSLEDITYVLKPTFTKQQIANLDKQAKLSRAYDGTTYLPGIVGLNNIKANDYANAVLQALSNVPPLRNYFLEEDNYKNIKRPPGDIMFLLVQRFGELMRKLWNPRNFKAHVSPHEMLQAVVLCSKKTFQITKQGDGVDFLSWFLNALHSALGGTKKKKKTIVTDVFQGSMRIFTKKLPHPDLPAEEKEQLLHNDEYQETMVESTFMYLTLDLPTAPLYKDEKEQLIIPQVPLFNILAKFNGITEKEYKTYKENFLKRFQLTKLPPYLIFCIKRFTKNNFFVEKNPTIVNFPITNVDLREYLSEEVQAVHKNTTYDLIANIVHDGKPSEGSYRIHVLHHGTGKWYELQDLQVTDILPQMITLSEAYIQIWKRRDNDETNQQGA
# His-tagged USP39 and GST-tagged VHL, sequence (P40337 whole entry): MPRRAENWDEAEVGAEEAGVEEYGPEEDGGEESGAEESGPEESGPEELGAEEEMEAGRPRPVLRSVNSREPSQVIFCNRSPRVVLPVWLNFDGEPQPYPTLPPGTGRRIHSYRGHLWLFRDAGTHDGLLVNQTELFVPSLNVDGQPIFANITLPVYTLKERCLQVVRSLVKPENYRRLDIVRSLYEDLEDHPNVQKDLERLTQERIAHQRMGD
# USP39_T2 [3] = target: T1, USP39_T2; assay: Isothermal titration calorimetry (ITC); assay type: binding
# FKBP12^F36V-USP39 [4] = target: T2, FKBP12^F36V-USP39 (Homo sapiens, UniProt P62942+Q96SW2, F37V); assay: dTAG system degradation of FKBP12^F36V-USP39; assay type: cell-based
# T2 construct: expressed in transfected cells
# T2 sequence (P62942 whole entry F37V): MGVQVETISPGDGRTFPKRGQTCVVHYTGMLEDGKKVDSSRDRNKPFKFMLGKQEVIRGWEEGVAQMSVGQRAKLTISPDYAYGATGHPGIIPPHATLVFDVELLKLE
# T2 sequence (Q96SW2 whole entry): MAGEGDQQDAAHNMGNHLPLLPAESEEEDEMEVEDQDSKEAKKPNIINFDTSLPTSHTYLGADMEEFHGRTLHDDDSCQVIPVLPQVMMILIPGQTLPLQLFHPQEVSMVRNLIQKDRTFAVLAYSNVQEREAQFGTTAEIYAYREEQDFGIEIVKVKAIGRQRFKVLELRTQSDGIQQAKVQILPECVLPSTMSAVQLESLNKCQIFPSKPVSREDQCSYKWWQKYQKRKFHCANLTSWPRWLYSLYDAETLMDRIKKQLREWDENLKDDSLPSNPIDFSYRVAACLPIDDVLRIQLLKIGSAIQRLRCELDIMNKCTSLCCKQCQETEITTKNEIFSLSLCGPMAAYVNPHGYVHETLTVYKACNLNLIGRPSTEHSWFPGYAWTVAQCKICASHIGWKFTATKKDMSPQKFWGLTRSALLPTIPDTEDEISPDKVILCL
# From the text: (§1) To investigate whether USP39 can be degraded through the ubiquitin‐proteasome system, we utilized the dTAG system by fusing FKBP12^F36V to the N‐terminus of USP39 (Figure SI1A).^[ [22] ^]
# FKBP12^F36V-USP39 [5] = target: T3, FKBP12^F36V-USP39 (Homo sapiens, UniProt, F37V); assay: dTAG system degradation of FKBP12^F36V-USP39; assay type: cell-based
# T3 construct: expressed in transfected cells
# T3 sequence (P62942 whole entry F37V): as the sequence (P62942 whole entry F37V) above
# T3 sequence (Q96SW2 whole entry, further chain): as the sequence (Q96SW2 whole entry) above
# From the text: as §1
structure (smiles),measurement,setting,value
CCOC(=O)c1csc(Nc2ccccc2Cl)n1 [C4],Binding in competitive FP screening normalized to USP39_B1,USP39_T2 [1],failed to show measurable binding
CCOC(=O)c1csc(Nc2ccc(Cl)cc2)n1 [USP39_B1],Kd of ternary complex formation (Alpha assay),[2],no clear interaction was observed
same,Inhibitory effect in competitive FP assay,"USP39_T2 [1]; at 50 µM, USP39_T2, tracer USP39_B1-FITC",weak inhibitory effect
same,IC50,USP39_T2 [1],> 50000 nM
same,Kd by ITC,USP39_T2 [3],did not yield a clear binding isotherm
CCOC(=O)c1csc(Nc2cccc(F)c2)n1 [USP39_B3],Binding in competitive FP screening normalized to USP39_B1,USP39_T2 [1],significantly improved binding affinity
same,IC50,USP39_T2 [1],1180 nM
CC[C@H](C(=O)N1CCCC[C@H]1C(=O)O[C@H](CCc1ccc(OC)c(OC)c1)c1ccccc1OCC(=O)NCCCCCCOc1cccc2c1C(=O)N(C1CCC(=O)NC1=O)C2=O)c1cc(OC)c(OC)c(OC)c1 (stereo partly drawn) [dTAG13],Time to degradation of FKBP12^F36V-USP39,FKBP12^F36V-USP39 [4],≤ 24 h
same,Effect on endogenous USP39 levels,FKBP12^F36V-USP39 [5],without affecting
